# “Also recorded” adds a separate entry of the source.
# What was measured:
# mice [1] = test: Open field test (locomotor activity); assay type: in vivo; conditions: 1 hour after i.p. drug, Hydrochloride
# Method: Mice were placed into individual open-field arenas (50 cm length×50 cm width×38 cm height; San Diego Instruments, San Diego, Calif., USA) for a 60-min habituation period. Mice were then injected with the respective drug and assessed for locomotor activity for another 60 min. Distance travelled was analyzed using TopScan v2.0 (CleverSys, Inc, Reston, Va., USA).
# male CD-1 mice [2] = test: Learned helplessness (LH); assay type: in vivo; conditions: single injection, test 24 hours after administration
# Description: (§1) Male CD-1 mice (8-10 weeks old, Charles River Laboratories, Mass., USA) were housed in groups of four-five per cage with a constant 12-hour light/dark cycle (lights on/off at 07:00/19:00). Food and water were available ad libitum. Mice acclimatized to the new environment for seven days prior to the start of the experiments. For the whole-cell NMDA current electrophysiological recordings, male Sprague-Dawley rats (housed three per cage; Charles River, Wilmington, Mass.) were used. EPSC recording were done from rats at postnatal day 24-25. All experimental procedures were approved by the University of Maryland, Baltimore Animal Care and Use Committee and were conducted in full accordance with the National Institutes of Health Guide for the Care and Use of Laboratory Animals.
# The LH paradigm consisted of three different phases, i.e., inescapable shock training, LH screening, and the LH test. For the inescapable shock portion of the test (Day 1), the animals were placed in one side of two-chambered shuttle boxes (34 cm height×37 cm width×18 cm depth; Coulbourn Instruments, PA, USA), with the door between the chambers closed. Following a five-min adaptation period, 120 inescapable foot-shocks (0.45 mA, 15 sec duration, randomized average inter-shock interval of 45 sec) were delivered through the grid floor. During the screening session (Day 2), the mice were placed in one of the two chambers of the apparatus for 5 min. A shock (0.45 mA) was then delivered, and the door between the two chambers was raised simultaneously. Crossing over into the second chamber terminated the shock. […] A total of 30 screening trials of escapable shocks were presented to each mouse with an average of 30 sec delay between each trial. Mice that developed helplessness behavior (>5 escape failures during the last 10 screening shocks) were administered with the respective drug 24 hours following screening (Day 3). During the LH test phase (Day 4), the animals were placed in the shuttle boxes and, after a 5-min adaptation period, a 0.45 mA shock was delivered concomitantly with door opening for the first five trials, followed by a 2-sec delay for the next 40 trials. Crossing over to the second chamber terminated the shock. […] A total of 45 trials of escapable shock were presented to each mouse with 30 sec inter-trial intervals. The number of escape failures was recorded for each mouse.
# male CD-1 mice [3] = test: Forced-swim test (FST); assay type: in vivo; conditions: for antidepressant effect in the FST (immobility time): i.p.
# Description: as §1
# Mice were tested in the FST 1 hour and/or 24 hours post-injection. During the FST, mice were subjected to a 6-min swim session in clear Plexiglass cylinders (30 cm height×20 cm diameter) filled with 15 cm of water (23±1° C.). The FST was performed in normal light conditions (800 Lux). Sessions were recorded using a digital video-camera. Immobility time, defined as passive floating with no additional activity other than that necessary to keep the animal's head above water, was scored for the last 4 min of the 6-min test by a trained observer blind to the treatment.
# All drugs were dissolved in 0.9% saline, and administered intraperitoneally (i.p.) in a volume of 7.5 ml/kg of body mass. Corticosterone (4-pregnen-11β, 21-diol-3, 20-dione 21-hemisuccinate; Steraloids, Newport, R.I., USA) was dissolved in tap water. For the electrophysiology recordings, test drugs were diluted in artificial cerebrospinal fluid (AC SF).
# [4] = Tissue distribution of ketamine and metabolites (plasma and brain levels)
# Method: Mice were euthanized by a 30-sec exposure to 3% isoflurane and decapitated at 10, 30, 60, 240 or 480 minutes following drug administration. Trunk blood was collected in EDTA-containing tubes and centrifuged at 8000 rpm for 6 min (4° C.). Plasma was collected and stored at −80° C. until analysis. Whole brains were simultaneously collected, rinsed with phosphate-buffered saline, immediately frozen in dry ice and stored at −80° C. until analysis.
# The concentrations of ketamine and its metabolites in plasma and brain tissue were determined by achiral liquid chromatography-tandem mass spectrometry. For plasma samples, the calibration standards for (R,S)-ketamine, (R,S)-norketamine, (2R,6R;2S,6S)-HNK and (R,S)-DHNK ranged from 10,000 ng/ml to 19 ng/ml. The quantification of (R,S)-ketamine, (R,S)-norketamine, (R,S)-DHNK, and the HNK stereoisomers was accomplished by calculating area ratios using D4-ketamine (10 μl of 10 μg/ml solution) as the internal standard. Whole brains were suspended in 990 μl of water:methanol (3:2, v/v), D4-ketamine (10 μl of 10 μg/ml) added and the resulting mixture homogenized on ice with a polytron homogenizer and centrifuged at 21,000×g for 30 min. The supernatant was collected and processed using 1 ml Oasis HLB solid phase extraction cartridges (Waters Corp., Waltham, Mass.). The cartridges were preconditioned with 1 ml of methanol, followed by 1 ml of water and then 1 ml ammonium acetate [10 mM, pH 9.5]. The supernatants were added to the cartridges, followed by 1 ml of water and the compounds were eluted with 1 ml of methanol. The eluent was transferred to an autosampler vial for analysis. QC standards for the analysis of (R,S)-ketamine, (R,S)-norketamine, (R,S)-DHNK and (2R,6R;2S,6S)-HNK ranged from 10,000 ng/ml to 19 ng/ml, and quantification was accomplished using D4-(R,S)-ketamine as the internal standard. QC standards were prepared daily by adding 10 μl of the appropriate standard solution and 10 μl of internal standard solution (100 ng/ml) to methanol.
# mice [5] = test: Quantitative EEG, cortical oscillation power; assay type: in vivo; conditions: NBQX before (2R,6R)-HNK
# Method: EEG experiments were performed according to Raver et al., (Neuropsychopharmacology, 38, 2338-2347 (2013)) with minor modifications. Mice were anesthetized with isoflurane and kept under anesthesia throughout the surgery. An F20-EET radio-telemetric transmitter (Data Sciences International, Minneapolis, Minn.) was implanted subcutaneously and its leads implanted over the dura above the frontal cortex (1.7 mm anterior to bregma) and the cerebellum (6.4 mm posterior to bregma). Animals recovered from surgery for 7 days before recordings.
# Mice were singly housed and acclimated to the behavioral room for 24 hours prior to EEG recordings. EEGs were recorded using the Dataquest A.R.T. acquisition system (Data Sciences International) with frontal EEG recordings referenced to the cerebellum. Baseline EEG (10 min) recordings were followed by an i.p. injection of saline, ketamine (10 mg/kg) or (2R,6R)-HNK (10 mg/kg) and 40 min of post-injection recordings.
# ECoGs were analyzed using custom-written MATLAB scripts (Version 2012a, Mathworks, Mass.) and the mtspecgramc routine in the Chronux Toolbox (http://chronux.org; Mitra and Bokil, 2008). Oscillation power in each bandwidth (δ=1-3 Hz; θ=4-7 Hz; α=8-12 Hz; β=13-29 Hz; γ=30-80 Hz) was computed in 10 min bins from spectrograms for each animal.
# mice [6] = test: Drug discrimination in ketamine-trained mice; assay type: in vivo; conditions: for ketamine-associated discriminative stimulus: mice trained to discriminate ketamine (10 mg/kg) from saline
# Method: Mice were food restricted until they reached 85% of their initial body weight and were maintained at 85% throughout the duration of the experiment Animals were trained to lever press for food (20 mg sucrose pellets; TestDiet, St. Luis, Mo., USA) in standard two lever-operant conditioning chambers (Coulbourn Instruments, Whitehall, Pa., USA), under a fixed-ratio 5 of reinforcement (FR5) in daily 30-min sessions. When stable responding was succeeded over 3 consecutive sessions (average of 40 training sessions), mice were trained to discriminate ketamine (10 mg/kg) from saline (7.5 ml/kg) under a double alternation schedule (e.g., ketamine, ketamine, saline, saline). The subjects received either ketamine (10 mg/kg; i.p.) or saline (7.5 ml/kg) 15 minutes prior to the start of the 30-minute session. […] Drug discrimination test sessions were conducted when mice reached the following criteria: (1) first FR5 completed on the correct lever, and (2)≥85% correct lever responding over the entire session. During the test sessions mice were administered with saline (7.5 ml/kg), ketamine (10 mg/kg), phencyclidine (PCP; 3 mg/kg) or (2R,6R)-HNK (10 and 50 mg/kg). […] Recording of responses and pellet delivery were controlled and calculated by an automated computer system (Graphic State v3.1; Coulbourn Instruments, Whitehall, Pa., USA).
# Male C57BL/6J mice = test: Chronic social defeat stress and social interaction/avoidance test; assay type: in vivo; conditions: single i.p. injection, re-test 24 hours following treatment
# Method: Male C57BL/6J mice underwent a 10-day chronic social defeat stress paradigm. Briefly, experimental mice were introduced to the home cage (43 cm length×11 cm width×20 cm height) of a resident aggressive retired CD-1 breeder, prescreened for aggressive behaviors, for 10 min. Following this physical attack phase, mice were transferred and housed in the opposite side of the resident's cage divided by a Plexiglas perforated divider, in order to maintain continuous sensory contact. This process was repeated for 10 days. Experimental mice were introduced to a novel aggressive CD-1 mouse each day. On day 11, test mice were screened for susceptibility in a social interaction/avoidance choice test. The social interaction apparatus consisted of a rectangular three-chambered box (mouse conditioned-place preference chamber; Stoelting Co., Wood Dale, Ill., USA), see FIG. 7b) comprised of two equal sized end-chambers and a smaller central chamber. The social interaction/avoidance choice test consisted of two 5-min phases. During the habituation phase, mice explored the empty apparatus. During the test phase, two small wire cages (Galaxy Cup, Spectrum Diversified Designs, Inc., Streetsboro, Ohio, USA), one containing a “stranger” CD-1 mouse and the other one empty, were placed in the far corners of each chamber. The time spent interacting (nose within close proximity of the cage) with the “stranger” mouse versus the empty cage was analysed using TopScan video tracking software (CleverSys, Reston, Va.). Locomotor activity (total distance moved over 5 min) and number of total crosses into and out of the central chamber were also measured. The social interaction ratio was calculated by dividing the time spent interacting with the “stranger” by the time spent with the empty cage. Mice having a social interaction ratio higher than 1.0 were considered resilient and mice with a social interaction ratio lower than 1.0 were considered susceptible. On day 13 resilient and susceptible mice received an i.p. injection of either saline, (R,S)-KET (20 mg/kg; chosen based upon dose previously effective in C57BL/6J mice^31), MK-801 (0.1 mg/kg) or (2R,6R)-HNK (20 mg/kg). Mice were re-tested for social interaction/avoidance on […] (24 hours following treatment).
# [7] = 24 hours post-injection (sustained)
structure (smiles),measurement,setting,value
"Cl.[2H]C1([2H])CCCC(NC)(c2ccccc2Cl)C1=O (centres unmarked) [6,6-dideuteroketamine, 2-(2-Chlorophenyl)-6,6-Dideutero-2-(Methylamino)Cyclohexanone Hydrochloride]",locomotor activity in the open-field test,mice [1],did not change or NMDA-mediated hyperlocomotion
same,locomotor activity in the open-field test,"mice [1]; listed as (R,S)-6,6-dideuteroketamine",equally potent in inducing a hyper-locomotor response
same,antidepressant-like effect in learned helplessness (escape failures),male CD-1 mice [2],did not induce antidepressant actions
same,antidepressant effect in the FST (immobility time),male CD-1 mice [3]; [7],did not induce antidepressant actions
same,levels of ketamine in the brain,"[4]; 6,6-dideuteroketamine compared to ketamine",without changes to the levels of ketamine in the brain
"NS(=O)(=O)c1cccc2c1c([N+](=O)[O-])cc1[nH]c(=O)c(=O)[nH]c12 [NBQX, 2,3-dihydroxy-6-nitro-7-sulfamoyl-benzo[f]quinoxaline-2,3-dione]",effect of NBQX pre-treatment on antidepressant-like actions in the FST,"male CD-1 mice [3]; NBQX 10 minutes prior to (R,S)-ketamine or (2R,6R)-HNK, FST 1 hour or 24 hours later","prevented their antidepressant-like actions; also recorded: prevented both the 1- and 24-hour antidepressant effects of (2R,6R)-HNK"
same,effect of NBQX given before the 24-hour FST on antidepressant effects,"male CD-1 mice [3]; NBQX 30 min prior to the 24-hour FST (23.5 hours after ketamine or (2R,6R)-HNK)","prevented the antidepressant actions of both ketamine and (2R,6R)-HNK; also recorded: prevented the antidepressant effects of both (R,S)-KET and (2R,6R)-HNK"
same,"effect of NBQX pre-treatment on (2R,6R)-HNK-induced increases in gamma oscillations",mice [5],"prevented (2R,6R)-HNK-induced increases in gamma power; also recorded: prevented (2R,6R)-HNK-induced increases of gamma oscillations"
same,"effect of NBQX pre-treatment on locomotor activity and alpha, beta, delta, theta oscillations",mice [5],did not change
"c1ccc(C2(N3CCCCC3)CCCCC2)cc1 [phencyclidine, reference compound]",response rate of overall lever pressing per sec,mice [6]; drug discrimination paradigm,not changed
same,ketamine-associated discriminative stimulus,mice [6],did
same,ketamine-associated discriminative stimulus,mice [6]; listed as PCP,produced ketamine-like discriminative properties
"NC1(c2ccccc2Cl)CCCCC1=O (racemic) [norketamine, (R,S)-norketamine]","brain levels following ketamine administration, female mice compared to males",[4]; brain,equivalent levels
CNCCCN1c2ccccc2CCc2ccccc21 [desipramine],antidepressant effect in the FST (immobility time),"male CD-1 mice [3]; 1- and 24-hours post-injection, times not separated",only decreased immobility time 1 hour post-injection
C[C@]12N[C@H](Cc3ccccc31)c1ccccc12 [MK-801],antidepressant effect in the FST (immobility time),male CD-1 mice [3]; 1 hour post-injection (acute),antidepressant responses of both ketamine and MK-801 observed acutely
same,antidepressant effect in the FST (immobility time),male CD-1 mice [3]; [7],does not exert sustained (24-hour) antidepressant-like effects
same,reversal of social interaction deficits / social avoidance induced by chronic social defeat stress,Male C57BL/6J mice,"does not exert sustained (24-hour) antidepressant-like effects in the FST, or reverse social interaction deficits"
